From PMC11213733, “Computational approaches identify a transcriptomic fingerprint of drug-induced structural cardiotoxicity” (Cell Biology and Toxicology, 2024)
Read-outs that look alike come from different tables or passages of the source.

Experiments:
cardiac microtissues [1] = assay: Ingenuity Pathway Analysis over-representation of differentially expressed genes (activation Z-score); format: cell-based, human; settings: 48hr high; Group 2
cardiac microtissues [2] = assay: Targeted qRT-PCR of ATAD3C, CDH13, IL6, PTX3, SLC7A5, UCHL1 in cardiac microtissues; format: cell-based, human; settings: Sorafenib 3.74 µM, Sunitinib 3.53 µM, Dasatinib 10.8 µM; for activity at 10.8 µM: Homo sapiens, read-out: % of control
Protocol: The experiment was performed with three technical replicates across 1-2 independent replicates.

[3] = ref FDA label, cited from earlier work
cardiac microtissues [4] = assay: Transcriptomic profiling (mRNA-seq) and DESeq2 differential gene expression analysis in cardiac microtissues; settings: absolute log2(Fold-Change) > 1, FDR p ≤ 0.05

For `Cc1nc(Nc2ncc(C(=O)Nc3c(C)cccc3Cl)s2)cc(N2CCN(CCO)CC2)n1` [Dasatinib], the “activation Z-score: Actin Cytoskeleton Signaling” value (cardiac microtissues [1]) was -2.887, the “activation Z-score: Actin Nucleation by ARP-WASP Complex” value (cardiac microtissues [1]) was -2.449 and the “activation Z-score: Acute Phase Response Signaling” value (cardiac microtissues [1]) was -2.828. The “activation Z-score: Adrenomedullin signaling pathway” value (cardiac microtissues [1]) was -0.535, the “activation Z-score: Apelin Cardiac Fibroblast Signaling Pathway” value (cardiac microtissues [1]) was 2.449 and the “activation Z-score: Apelin Liver Signaling Pathway” value (cardiac microtissues [1]) was -2.449. The “activation Z-score: Aryl Hydrocarbon Receptor Signaling” value (cardiac microtissues [1]) was -2.333, the “activation Z-score: Breast Cancer Regulation by Stathmin1” value (cardiac microtissues [1]) was -3.363 and the “activation Z-score: CLEAR Signaling Pathway” value (cardiac microtissues [1]) was 2.5. The “activation Z-score: Cardiac Hypertrophy Signaling (Enhanced)” value (cardiac microtissues [1]) was -3.889, the “activation Z-score: Colorectal Cancer Metastasis Signaling” value (cardiac microtissues [1]) was -3.5 and the “activation Z-score: Cyclins and Cell Cycle Regulation” value (cardiac microtissues [1]) was 1. For the same compound, the “activation Z-score: ERK5 Signaling” value (cardiac microtissues [1]) was -2.646, the “activation Z-score: Endothelin-1 Signaling” value (cardiac microtissues [1]) was -1.604 and the “activation Z-score: G-Protein Coupled Receptor Signaling” value (cardiac microtissues [1]) was -1.571. For the same compound, the “activation Z-score: GP6 Signaling Pathway” value (cardiac microtissues [1]) was -3.742, the “activation Z-score: Glioblastoma Multiforme Signaling” value (cardiac microtissues [1]) was -2.111 and the “activation Z-score: HGF Signaling” value (cardiac microtissues [1]) was -1.89. The “activation Z-score: HIF1Î± Signaling” value (cardiac microtissues [1]) was -2.673, the “activation Z-score: HMGB1 Signaling” value (cardiac microtissues [1]) was -3.3 and the “activation Z-score: Hepatic Fibrosis Signaling Pathway” value (cardiac microtissues [1]) was -6.008. For the same compound, the “activation Z-score: IL-6 Signaling” value (cardiac microtissues [1]) was -3.3, the “activation Z-score: IL-8 Signaling” value (cardiac microtissues [1]) was -2.84 and the “activation Z-score: IL-13 Signaling Pathway” value (cardiac microtissues [1]) was -1.897. For the same compound, the “activation Z-score: IL-15 Production” value (cardiac microtissues [1]) was -1.897, the “activation Z-score: ILK Signaling” value (cardiac microtissues [1]) was -3.207 and the “activation Z-score: Immunogenic Cell Death Signaling Pathway” value (cardiac microtissues [1]) was -2.828. For the same compound, the “activation Z-score: Integrin Signaling” value (cardiac microtissues [1]) was -3.357, the “activation Z-score: Intrinsic Prothrombin Activation Pathway” value (cardiac microtissues [1]) was -2.236 and the “activation Z-score: LXR/RXR Activation” value (cardiac microtissues [1]) was 3.3. The “activation Z-score: Leukocyte Extravasation Signaling” value (cardiac microtissues [1]) was -1.698, the “activation Z-score: MIF Regulation of Innate Immunity” value (cardiac microtissues [1]) was -1.633 and the “activation Z-score: MYC Mediated Apoptosis Signaling” value (cardiac microtissues [1]) was -2.449. The “activation Z-score: Macrophage Alternative Activation Signaling Pathway” value (cardiac microtissues [1]) was -0.728, the “activation Z-score: Oncostatin M Signaling” value (cardiac microtissues [1]) was -1.342 and the “activation Z-score: Osteoarthritis Pathway” value (cardiac microtissues [1]) was -2.985. For the same compound, the “activation Z-score: Oxytocin Signaling Pathway” value (cardiac microtissues [1]) was -2.4, the “activation Z-score: PAK Signaling” value (cardiac microtissues [1]) was -2.449 and the “activation Z-score: PPAR Signaling” value (cardiac microtissues [1]) was 3.742. For the same compound, the “activation Z-score: Production of Nitric Oxide and Reactive Oxygen Species in Macrophages” value (cardiac microtissues [1]) was -2.646, the “activation Z-score: Prostanoid Biosynthesis” value (cardiac microtissues [1]) was -1 and the “activation Z-score: Pulmonary Fibrosis Idiopathic Signaling Pathway” value (cardiac microtissues [1]) was -5.947. The “activation Z-score: Pulmonary Healing Signaling Pathway” value (cardiac microtissues [1]) was -2.668, the “activation Z-score: RAC Signaling” value (cardiac microtissues [1]) was -2.449 and the “activation Z-score: RHOGDI Signaling” value (cardiac microtissues [1]) was 2.309. For the same compound, the “activation Z-score: Regulation Of The Epithelial Mesenchymal Transition By Growth Factors Pathway” value (cardiac microtissues [1]) was -3.962, the “activation Z-score: Regulation of Cellular Mechanics by Calpain Protease” value (cardiac microtissues [1]) was -2 and the “activation Z-score: Regulation of eIF4 and p70S6K Signaling” value (cardiac microtissues [1]) was -2. The “activation Z-score: Renin-Angiotensin Signaling” value (cardiac microtissues [1]) was -2, the “activation Z-score: Ribonucleotide Reductase Signaling Pathway” value (cardiac microtissues [1]) was -2.496 and the “activation Z-score: Role of IL-17F in Allergic Inflammatory Airway Diseases” value (cardiac microtissues [1]) was -2. The “activation Z-score: Role of JAK family kinases in IL-6-type Cytokine Signaling” value (cardiac microtissues [1]) was -2.673, the “activation Z-score: Role of NFAT in Cardiac Hypertrophy” value (cardiac microtissues [1]) was -2.496 and the “activation Z-score: STAT3 Pathway” value (cardiac microtissues [1]) was -2.496. The “activation Z-score: Senescence Pathway” value (cardiac microtissues [1]) was -2, the “activation Z-score: Signaling by Rho Family GTPases” value (cardiac microtissues [1]) was -3.357 and the “activation Z-score: Superpathway of Cholesterol Biosynthesis” value (cardiac microtissues [1]) was 2. For the same compound, the “activation Z-score: TREM1 Signaling” value (cardiac microtissues [1]) was -2.714, the “activation Z-score: Type II Diabetes Mellitus Signaling” value (cardiac microtissues [1]) was -2 and the “activation Z-score: White Adipose Tissue Browning Pathway” value (cardiac microtissues [1]) was -2.111. The “activation Z-score: Wound Healing Signaling Pathway” value (cardiac microtissues [1]) was -5, the activity at 10.8 µM (cardiac microtissues [2]; gene ATAD3C, Run 1) was 75.7% and the activity at 10.8 µM (cardiac microtissues [2]; gene CDH13, Run 1) was 46.8%. For the same compound, the activity at 10.8 µM (cardiac microtissues [2]; gene CDH13, Run 2) was 19.7%, the activity at 10.8 µM (cardiac microtissues [2]; gene IL6, Run 1) was 10.1% and the activity at 10.8 µM (cardiac microtissues [2]; gene PTX3, Run 1) was 18.7%. The activity at 10.8 µM (cardiac microtissues [2]; gene PTX3, Run 2) was 4.94%, the activity at 10.8 µM (cardiac microtissues [2]; gene SLC7A5, Run 1) was 52.1% and the activity at 10.8 µM (cardiac microtissues [2]; gene SLC7A5, Run 2) was 26%. The activity at 10.8 µM (cardiac microtissues [2]; gene UCHL1, Run 1) was 42.1%, the activity at 10.8 µM (cardiac microtissues [2]; gene UCHL1, Run 2) was 21.3% and the “2^-ΔΔCt of Individual reps, Treated 1” value (cardiac microtissues [2]; gene ATAD3C, Run 1) was 0.8222. For the same compound, the “2^-ΔΔCt of Individual reps, Treated 2” value (cardiac microtissues [2]; gene ATAD3C, Run 1) was 0.6233, the “2^-ΔΔCt of Individual reps, Treated 3” value (cardiac microtissues [2]; gene ATAD3C, Run 1) was 0.828 and the “Average 2^-ΔΔCt, Treated” value (cardiac microtissues [2]; gene ATAD3C, Run 1) was 0.7578. For the same compound, the “2^-ΔΔCt of Individual reps, Treated 1” value (cardiac microtissues [2]; gene CDH13, Run 1) was 0.4709, the “2^-ΔΔCt of Individual reps, Treated 2” value (cardiac microtissues [2]; gene CDH13, Run 1) was 0.4361 and the “2^-ΔΔCt of Individual reps, Treated 3” value (cardiac microtissues [2]; gene CDH13, Run 1) was 0.5098. For the same compound, the “Average 2^-ΔΔCt, Treated” value (cardiac microtissues [2]; gene CDH13, Run 1) was 0.4723, the “2^-ΔΔCt of Individual reps, Treated 1” value (cardiac microtissues [2]; gene CDH13, Run 2) was 0.2109 and the “2^-ΔΔCt of Individual reps, Treated 2” value (cardiac microtissues [2]; gene CDH13, Run 2) was 0.2308. For the same compound, the “2^-ΔΔCt of Individual reps, Treated 3” value (cardiac microtissues [2]; gene CDH13, Run 2) was 0.1575, the “Average 2^-ΔΔCt, Treated” value (cardiac microtissues [2]; gene CDH13, Run 2) was 0.1997 and the “2^-ΔΔCt of Individual reps, Treated 1” value (cardiac microtissues [2]; gene IL6, Run 1) was 0.1388. The “2^-ΔΔCt of Individual reps, Treated 2” value (cardiac microtissues [2]; gene IL6, Run 1) was 0.1078, the “2^-ΔΔCt of Individual reps, Treated 3” value (cardiac microtissues [2]; gene IL6, Run 1) was 0.05876 and the “Average 2^-ΔΔCt, Treated” value (cardiac microtissues [2]; gene IL6, Run 1) was 0.1018. For the same compound, the “2^-ΔΔCt of Individual reps, Treated 1” value (cardiac microtissues [2]; gene PTX3, Run 1) was 0.2236, the “2^-ΔΔCt of Individual reps, Treated 2” value (cardiac microtissues [2]; gene PTX3, Run 1) was 0.2024 and the “2^-ΔΔCt of Individual reps, Treated 3” value (cardiac microtissues [2]; gene PTX3, Run 1) was 0.143. The “Average 2^-ΔΔCt, Treated” value (cardiac microtissues [2]; gene PTX3, Run 1) was 0.1897, the “2^-ΔΔCt of Individual reps, Treated 1” value (cardiac microtissues [2]; gene PTX3, Run 2) was 0.06731 and the “2^-ΔΔCt of Individual reps, Treated 2” value (cardiac microtissues [2]; gene PTX3, Run 2) was 0.04708. For the same compound, the “2^-ΔΔCt of Individual reps, Treated 3” value (cardiac microtissues [2]; gene PTX3, Run 2) was 0.03383, the “Average 2^-ΔΔCt, Treated” value (cardiac microtissues [2]; gene PTX3, Run 2) was 0.04941 and the “2^-ΔΔCt of Individual reps, Treated 1” value (cardiac microtissues [2]; gene SLC7A5, Run 1) was 0.5311. For the same compound, the “2^-ΔΔCt of Individual reps, Treated 2” value (cardiac microtissues [2]; gene SLC7A5, Run 1) was 0.5414, the “2^-ΔΔCt of Individual reps, Treated 3” value (cardiac microtissues [2]; gene SLC7A5, Run 1) was 0.5079 and the “Average 2^-ΔΔCt, Treated” value (cardiac microtissues [2]; gene SLC7A5, Run 1) was 0.5268. For the same compound, the “2^-ΔΔCt of Individual reps, Treated 1” value (cardiac microtissues [2]; gene SLC7A5, Run 2) was 0.3467, the “2^-ΔΔCt of Individual reps, Treated 2” value (cardiac microtissues [2]; gene SLC7A5, Run 2) was 0.2554 and the “2^-ΔΔCt of Individual reps, Treated 3” value (cardiac microtissues [2]; gene SLC7A5, Run 2) was 0.2489. For the same compound, the “Average 2^-ΔΔCt, Treated” value (cardiac microtissues [2]; gene SLC7A5, Run 2) was 0.2837, the “2^-ΔΔCt of Individual reps, Treated 1” value (cardiac microtissues [2]; gene UCHL1, Run 1) was 0.4041 and the “2^-ΔΔCt of Individual reps, Treated 2” value (cardiac microtissues [2]; gene UCHL1, Run 1) was 0.4271. The “2^-ΔΔCt of Individual reps, Treated 3” value (cardiac microtissues [2]; gene UCHL1, Run 1) was 0.4398, the “Average 2^-ΔΔCt, Treated” value (cardiac microtissues [2]; gene UCHL1, Run 1) was 0.4237 and the “2^-ΔΔCt of Individual reps, Treated 1” value (cardiac microtissues [2]; gene UCHL1, Run 2) was 0.202. The “2^-ΔΔCt of Individual reps, Treated 2” value (cardiac microtissues [2]; gene UCHL1, Run 2) was 0.2889, the “2^-ΔΔCt of Individual reps, Treated 3” value (cardiac microtissues [2]; gene UCHL1, Run 2) was 0.1891 and the “Average 2^-ΔΔCt, Treated” value (cardiac microtissues [2]; gene UCHL1, Run 2) was 0.2267. The “Structural cardiotoxin?” value ([3]; FDA label references heart failure or a decrease in left ventricular ejection fraction) was “Y”, the “Functional cardiotoxin?” value ([3]; compound annotation) was “Y” and the “number of significant differentially expressed genes, 6hr high” value (cardiac microtissues [4]; 6 hr, high concentration) was 108. The “number of significant differentially expressed genes, 6hr low” value (cardiac microtissues [4]; 6 hr, low concentration) was 48, the “number of significant differentially expressed genes, 48hr high” value (cardiac microtissues [4]; 48 hr, high concentration) was 820 and the “number of significant differentially expressed genes, 48hr low” value (cardiac microtissues [4]; 48 hr, low concentration) was 637. For the same compound, the “number of significant differentially expressed genes, 72hr high” value (cardiac microtissues [4]; 72 hr, high concentration) was 814 and the “number of significant differentially expressed genes, 72hr low” value (cardiac microtissues [4]; 72 hr, low concentration) was 616.
